Holding throughout (test): relative viability (nuclei count vs DMSO), 5 days (fraction); higher = more cells survive
Compound in experiment [1]: C1/C(=C\C2=CC=CS2)/C(=O)/C(=C/C3=CC=CS3)/C1 + Nc1nc2[nH]cc(CCc3ccc(C(=O)N[C@@H](CCC(=O)O)C(=O)O)cc3)c2c(=O)[nH]1 [Pemetrexed] (partner 0.2 µM)
The gist of the method: (§1)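 Medians of duplicate plates are given as relative viability. That measure is the nuclei count in treated wells divided by the count in vehicle wells. Counts were taken on 4× images of lung cancer cell lines in 1536-well plates, 5 days after pin-tool dosing the day after seeding with one drug alone or a fixed anchor-drug dose plus five library-drug doses (not always all listed) in √10 steps.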

Compound in experiment [2]: C1/C(=C\C2=CC=CS2)/C(=O)/C(=C/C3=CC=CS3)/C1 + Nc1ncn([C@H]2C[C@H](O)[C@@H](CO)O2)c(=O)n1 [Decitabine] (partner 2 µM)
The gist of the method: as §1

Compound in experiment [3]: C1/C(=C\C2=CC=CS2)/C(=O)/C(=C/C3=CC=CS3)/C1 + NC(=O)Nc1cc(-c2cccc(F)c2)sc1C(=O)N[C@H]1CCCNC1 [AZD7762] (partner 0.2 µM)
An outline of the steps: as §1

Compound in experiment [4]: C[C@]12O[C@H](C[C@]1(O)CO)n1c3ccccc3c3c4c(c5c6ccccc6n2c5c31)CNC4=O [Lestaurtinib] + CC(=O)Nc1cccc(-n2c(=O)n(C3CC3)c(=O)c3c(Nc4ccc(I)cc4F)n(C)c(=O)c(C)c32)c1 [Trametinib] (partner 0.02 µM)
The gist of the method:
as §1

Drawing on the supplement of paper PMC10307832, this text covers relative viability for four cell lines.

As for PC-3 [JPC-3], the relative viability in experiment [1] (first compound 0.6325 µM) worked out at 1.15; in experiment [1] (first compound 2 µM), 0.982; in experiment [1] (first compound 6.325 µM) it was 1.04; in experiment [1] (first compound 20 µM), 1.26; in experiment [2] (first compound 0.6325 µM) it was 0.792; in experiment [2] (first compound 2 µM), 0.849. Besides, the relative viability in experiment [2] (first compound 6.325 µM) was 0.694; in experiment [2] (first compound 20 µM), 0.815; in experiment [3] (first compound 0.6325 µM), 0.934; in experiment [3] (first compound 2 µM), 0.889; in experiment [3] (first compound 6.325 µM) it was 0.804; in experiment [3] (first compound 20 µM), 0.798. Moreover, the relative viability in experiment [4] (first compound 0.005 µM) is 0.766; in experiment [4] (first compound 0.01581 µM), 0.709; in experiment [4] (first compound 0.05 µM), 0.779; in experiment [4] (first compound 0.1581 µM), 0.575; in experiment [4] (first compound 0.5 µM), 0.585.
As for PC-14, the relative viability came out at 0.145 in experiment [1] (first compound 0.2 µM); 0.166 in experiment [1] (first compound 0.6325 µM); 0.136 in experiment [1] (first compound 2 µM); 0.131 in experiment [1] (first compound 6.325 µM); 0.142 in experiment [1] (first compound 20 µM); 0.224 in experiment [2] (first compound 0.2 µM). The relative viability worked out at 0.242 in experiment [2] (first compound 0.6325 µM); 0.233 in experiment [2] (first compound 2 µM); 0.2 in experiment [2] (first compound 6.325 µM); 0.216 in experiment [2] (first compound 20 µM); 0.433 in experiment [3] (first compound 0.2 µM); 0.357 in experiment [3] (first compound 0.6325 µM). Further, the relative viability in experiment [3] (first compound 2 µM) is 0.352; in experiment [3] (first compound 6.325 µM) it was 0.306; in experiment [3] (first compound 20 µM) it was 0.432; in experiment [4] (first compound 0.005 µM), 0.793; in experiment [4] (first compound 0.01581 µM) it was 0.787; in experiment [4] (first compound 0.05 µM), 0.701. The relative viability came to 0.548 in experiment [4] (first compound 0.1581 µM) and 0.0827 in experiment [4] (first compound 0.5 µM).
In the case of RERF-LC-KJ, the relative viability in experiment [1] (first compound 0.2 µM) is 0.474; in experiment [1] (first compound 0.6325 µM), 0.49; in experiment [1] (first compound 2 µM), 0.473; in experiment [1] (first compound 6.325 µM) it was 0.449; in experiment [1] (first compound 20 µM), 0.511; in experiment [2] (first compound 0.2 µM), 0.816. Also, the relative viability in experiment [2] (first compound 0.6325 µM) was determined as 0.767; in experiment [2] (first compound 2 µM) it was 0.728; in experiment [2] (first compound 6.325 µM), 0.619; in experiment [2] (first compound 20 µM), 0.463; in experiment [3] (first compound 0.2 µM), 1.09; in experiment [3] (first compound 0.6325 µM), 1.04. The relative viability in experiment [3] (first compound 2 µM) was found to be 1.05; in experiment [3] (first compound 6.325 µM), 0.87; in experiment [3] (first compound 20 µM) it was 1.06; in experiment [4] (first compound 0.005 µM), 0.946; in experiment [4] (first compound 0.01581 µM) it was 0.879; in experiment [4] (first compound 0.05 µM), 0.736. Besides, the relative viability is 0.701 in experiment [4] (first compound 0.1581 µM) and 0.478 in experiment [4] (first compound 0.5 µM).
With SW 900, the relative viability came to 0.481 in experiment [1] (first compound 0.2 µM); 0.525 in experiment [1] (first compound 0.6325 µM); 0.49 in experiment [1] (first compound 2 µM); 0.399 in experiment [1] (first compound 6.325 µM); 0.482 in experiment [1] (first compound 20 µM); 0.404 in experiment [2] (first compound 0.2 µM). The relative viability in experiment [2] (first compound 0.6325 µM) amounted to 0.434; in experiment [2] (first compound 2 µM), 0.375; in experiment [2] (first compound 6.325 µM), 0.42; in experiment [2] (first compound 20 µM), 0.438; in experiment [3] (first compound 0.2 µM) it was 0.74; in experiment [3] (first compound 0.6325 µM), 0.665. The relative viability in experiment [3] (first compound 2 µM) stood at 0.628; in experiment [3] (first compound 6.325 µM), 0.495; in experiment [3] (first compound 20 µM), 0.602; in experiment [4] (first compound 0.005 µM) it was 0.959; in experiment [4] (first compound 0.01581 µM), 0.86; in experiment [4] (first compound 0.05 µM), 0.691. Also, the relative viability in experiment [4] (first compound 0.1581 µM) stood at 1.16; in experiment [4] (first compound 0.5 µM) it was 0.876.
